Measurements as given in US9849104B2 (Gemphire Therapuetics Inc., priority 2015, dated 2017).
Where two headings read alike, the source gives them in different places.

What was measured:
CYP2A6 = target: T1, CYP2A6 (Homo sapiens, UniProt P11509); experiment: Inhibition of CYP2A6 (7-hydroxylation of coumarin) in human liver microsomes; format: in vitro ADME; conditions: probe coumarin (7-hydroxylation), 4 μM, read-out: inhibitory activity toward CYP2A6
T1 construct: Human livers, HLM141, HLM143, and HLM144 were selected from the University of Washington Human Liver Bank for this study; Microsomes were prepared; tissue University of Washington Human Liver Bank HLM141, HLM143, HLM144; host or cells: human liver microsomes
T1 sequence (P11509 1-494): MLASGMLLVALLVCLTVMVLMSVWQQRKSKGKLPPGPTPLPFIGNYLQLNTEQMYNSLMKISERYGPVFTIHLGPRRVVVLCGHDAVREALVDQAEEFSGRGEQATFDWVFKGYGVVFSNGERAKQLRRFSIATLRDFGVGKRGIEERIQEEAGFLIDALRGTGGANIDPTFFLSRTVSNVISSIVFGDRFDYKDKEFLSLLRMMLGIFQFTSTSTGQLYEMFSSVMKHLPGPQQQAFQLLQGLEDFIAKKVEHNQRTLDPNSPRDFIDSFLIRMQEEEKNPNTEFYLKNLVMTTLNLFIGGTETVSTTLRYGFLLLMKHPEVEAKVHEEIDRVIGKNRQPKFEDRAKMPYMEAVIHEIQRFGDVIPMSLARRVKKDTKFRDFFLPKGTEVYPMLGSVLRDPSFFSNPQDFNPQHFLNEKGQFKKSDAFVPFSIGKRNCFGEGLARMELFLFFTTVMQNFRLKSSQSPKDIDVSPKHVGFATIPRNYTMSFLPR
Description: (§1) Human livers, HLM141, HLM143, and HLM144 were selected from the University of Washington Human Liver Bank for this study. […] The seven isoforms and the metabolic pathway of each of the probes used to monitor specific isoform activity are listed below.
CYP2A6: The 7-hydroxylation of coumarin (4 μM). The reaction is monitored by HPLC using florescence detection.

CYP2C9 = target: T2, CYP2C9 (Homo sapiens, UniProt P11712); experiment: Inhibition of CYP2C9 (7-hydroxylation of (S)-warfarin) in human liver microsomes; format: in vitro ADME; conditions: probe (S)-warfarin (7-hydroxylation), 4 μM, read-out: inhibitory activity toward CYP2C9
T2 construct: Human livers, HLM141, HLM143, and HLM144 were selected from the University of Washington Human Liver Bank for this study; Microsomes were prepared; tissue University of Washington Human Liver Bank HLM141, HLM143, HLM144; host or cells: human liver microsomes
T2 sequence (P11712 whole entry): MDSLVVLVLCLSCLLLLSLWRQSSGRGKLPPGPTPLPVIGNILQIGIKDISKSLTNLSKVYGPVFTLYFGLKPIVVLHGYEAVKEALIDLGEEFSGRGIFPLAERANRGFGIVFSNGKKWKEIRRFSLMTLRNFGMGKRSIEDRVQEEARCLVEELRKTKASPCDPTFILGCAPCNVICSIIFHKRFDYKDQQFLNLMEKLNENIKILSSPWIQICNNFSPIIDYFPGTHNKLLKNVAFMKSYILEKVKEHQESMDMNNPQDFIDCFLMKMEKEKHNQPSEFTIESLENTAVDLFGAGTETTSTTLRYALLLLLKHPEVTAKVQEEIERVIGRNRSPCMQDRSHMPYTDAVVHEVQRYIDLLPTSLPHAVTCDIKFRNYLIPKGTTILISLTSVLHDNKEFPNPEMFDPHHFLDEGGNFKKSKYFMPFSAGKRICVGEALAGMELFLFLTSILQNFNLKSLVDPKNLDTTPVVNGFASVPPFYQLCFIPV
Description: as §1
CYP2C9: The 7-hydroxylation of (S)-warfarin (4 μM). The reaction is monitored by quantitative GC/MS using 7-hydroxywarfarin-(d5-phenyl) as the internal standard.

CYP2D6 = target: T3, CYP2D6 (Homo sapiens, UniProt P10635); experiment: Inhibition of CYP2D6 (demethylation of dextromethorphan) in human liver microsomes; format: in vitro ADME; conditions: probe dextromethorphan (O-demethylation), 5 μM, read-out: inhibitory activity toward CYP2D6
T3 construct: Human livers, HLM141, HLM143, and HLM144 were selected from the University of Washington Human Liver Bank for this study; Microsomes were prepared; tissue University of Washington Human Liver Bank HLM141, HLM143, HLM144; host or cells: human liver microsomes
T3 sequence (P10635 whole entry): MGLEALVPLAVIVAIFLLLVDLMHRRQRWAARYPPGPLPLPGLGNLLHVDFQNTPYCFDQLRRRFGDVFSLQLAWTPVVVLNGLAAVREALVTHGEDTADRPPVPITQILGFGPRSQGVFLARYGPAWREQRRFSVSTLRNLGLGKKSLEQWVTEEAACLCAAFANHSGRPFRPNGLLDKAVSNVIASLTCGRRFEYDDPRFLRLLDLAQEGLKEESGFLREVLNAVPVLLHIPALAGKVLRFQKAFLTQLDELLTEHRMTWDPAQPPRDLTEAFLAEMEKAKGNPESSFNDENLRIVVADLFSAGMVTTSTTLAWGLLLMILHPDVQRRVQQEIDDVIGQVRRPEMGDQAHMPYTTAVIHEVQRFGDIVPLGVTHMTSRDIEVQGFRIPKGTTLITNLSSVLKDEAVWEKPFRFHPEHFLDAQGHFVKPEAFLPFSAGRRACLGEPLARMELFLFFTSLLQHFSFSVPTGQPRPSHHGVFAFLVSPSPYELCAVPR
Description: as §1
CYP2D6: The 0-demethylation of dextromethorphan (5 μM). The reaction is monitored by high performance liquid chromatography (HPLC) using florescence detection.

CYP2E1 = target: T4, CYP2E1 (Homo sapiens, UniProt P05181); experiment: Inhibition of CYP2E1 (p-nitrocatechol from p-nitrophenol) in human liver microsomes; format: in vitro ADME; conditions: 1500 μM
T4 construct: Human livers, HLM141, HLM143, and HLM144 were selected from the University of Washington Human Liver Bank for this study; Microsomes were prepared; tissue University of Washington Human Liver Bank HLM141, HLM143, HLM144; host or cells: human liver microsomes
T4 sequence (P05181 whole entry): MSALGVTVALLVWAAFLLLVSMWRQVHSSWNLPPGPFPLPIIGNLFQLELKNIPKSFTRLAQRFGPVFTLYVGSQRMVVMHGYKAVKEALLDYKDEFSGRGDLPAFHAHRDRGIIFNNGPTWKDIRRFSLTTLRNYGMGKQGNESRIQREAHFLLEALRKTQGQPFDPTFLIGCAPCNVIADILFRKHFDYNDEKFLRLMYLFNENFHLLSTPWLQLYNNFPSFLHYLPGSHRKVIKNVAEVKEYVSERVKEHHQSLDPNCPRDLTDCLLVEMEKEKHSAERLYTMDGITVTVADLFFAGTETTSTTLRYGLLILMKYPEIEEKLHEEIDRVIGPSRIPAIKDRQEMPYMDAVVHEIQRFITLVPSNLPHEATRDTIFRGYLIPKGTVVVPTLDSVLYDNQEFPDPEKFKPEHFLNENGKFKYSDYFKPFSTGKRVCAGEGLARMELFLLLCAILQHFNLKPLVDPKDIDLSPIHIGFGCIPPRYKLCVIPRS
Description: as §1
CYP2E1: The formation of p-nitrocatechol from p-nitrophenol (40 μM). Amounts of product formed are monitored by HPLC.

[1] = Effect of gemcabene on simvastatin pharmacokinetics (active HMG-Co-A reductase inhibitor concentration); format: in vivo, human; conditions: simvastatin alone vs in combination with gemcabene
[2] = system: STAM model of non-alcoholic steatohepatitis (NASH); conditions: for Fasting blood glucose (mean ± SD): Day 18, 8 hours of fasting; for Non-fasting blood glucose (mean ± SD): termination (Day 21); for Plasma GGT (mean ± SD) / Plasma creatinine (mean ± SD) / Plasma ALP (mean ± SD): mouse, in vivo, po
Description: Telmisartan (Micardis®) was purchased from Boehringer Ingelheim GmbH (Germany) and dissolved in pure water.
Telmisartan was administered at a dose of 10 mg/kg once daily.
Eight-hour fasting blood glucose was measured in whole blood using Life Check (EIDIA Co. Ltd., Japan). For plasma biochemistry, eight-hour fasting blood was collected in polypropylene tubes with anticoagulant (Novo-Heparin, Mochida Pharmaceutical, Japan) and centrifuged at 1,000×g for 15 minutes at 4° C. The supernatant was collected and stored at −80° C. until use. Plasma insulin levels were quantified by Ultra Sensitive Mouse Insulin ELISA kit (Morinaga Institute of Biological Science, Inc., Japan).
On the day of termination, non-fasting blood glucose was measured in whole blood using Life Check. For plasma biochemistry, non-fasting blood was collected in polypropylene tubes with anticoagulant (Novo-Heparin) and centrifuged at 1,000×g for 15 minutes at 4° C. The supernatant was collected and stored at −80° C. until use. Plasma ALT, AST, ALP, GGT, BUN, creatinine and total bilirubin levels were measured by FUJI DRI-CHEM 7000 (Fujifilm Corporation, Japan). Plasma ketone body levels were quantified by EnzyChrom™ Ketone Body Assay Kit (BioAssay Systems, USA).
Liver samples were homogenized in chloroform-methanol (2:1, v/v) and incubated overnight at room temperature. After washing with chloroform-methanol-water (8:4:3, v/v/v), the extracts were evaporated to dryness, and dissolved in isopropanol. Liver triglyceride content was measured by Triglyceride E-test (Wako Pure Chemical Industries). […]
Statistical analyses were performed using Bonferroni Multiple Comparison Test on GraphPad Prism 6 (GraphPad Software Inc., USA). […] Results were expressed as mean±SD.
The viability, clinical signs and behavior were monitored daily. Body weight was recorded before the treatment. […] The animals were sacrificed by exsanguinations through direct cardiac puncture under isoflurane anesthesia (Pfizer Inc.) at 9 weeks of age.

fibrinogen = experiment: Fibrinogen in hypercholesterolemic patients, post hoc analysis of Study A4141001; format: in vivo, human; conditions: for Difference in fibrinogen change, Gem-placebo: subgroup baseline >400 mg/dL
Description: Week 0) and the end (Visit T8, Week 8). Analyses of covariance (ANCOVA) methods used in the original study A4141001 were again utilized in these analyses. For fibrinogen, baseline was defined as the last pretreatment visit, and endpoint was the last visit up to and including the day after last dose of medication. The least-squares means and p-values for change from baseline in fibrinogen were calculated using an ANCOVA model with the effects of baseline lipid value and treatment. Also, medians and p-values for percent change from baseline. […] This, consequently, was the definition for the modified intent-to treat (MITT) population.

[3] = gemcabene 300 and 900 mg QD with atorvastatin 80 mg QD
[4] = STAM NASH mice, 30 mg/kg PO QD, 30 mg/kg
[5] = STAM NASH mice, 100 mg/kg PO QD, 100 mg/kg
[6] = STAM NASH mice, 100 mg/kg PO QD, Day 21, 100 mg/kg
[7] = STAM NASH mice, 300 mg/kg PO QD, 300 mg/kg

SMILES: CC(C)(CCCCOCCCCC(C)(C)C(=O)O)C(=O)O [Gemcabene, 6,6′-oxybis(2,2-dimethylhexanoic acid)]
- inhibition at 1500 µM (CYP2A6): 10 to 20%
- inhibition at 1500 µM (CYP2C9): 10 to 20%
- inhibition at 1500 µM (CYP2D6): 10 to 20%
- CYP2E1 activity enhanced (CYP2E1): about 20%
- effect on active HMG-Co-A reductase inhibitor pharmacokinetics after simvastatin (80 mg) [1]: lowers Cmax but has no effect on AUC
- NAFLD Activity score, NAS (mean ± SD) ([2]; STAM NASH mice, 30 mg/kg PO QD 6-9 wks, 30 mg/kg): significant reduction
- Fasting blood glucose (mean ± SD) [2, 4]: no significant differences
- Liver triglyceride (mean ± SD) ([2]; STAM NASH mice, 30 mg/kg PO QD, Day 21, 30 mg/kg): no significant differences
- Non-fasting blood glucose (mean ± SD) [2, 4]: no significant differences
- Fasting blood glucose (mean ± SD) [2, 5]: no significant differences
- Liver triglyceride (mean ± SD) [2, 6]: no significant differences
- Plasma ALT (mean ± SD) [2, 6]: significant decrease
- Non-fasting blood glucose (mean ± SD) [2, 5]: no significant differences
- NAFLD Activity score, NAS (mean ± SD) ([2]; STAM NASH mice, 300 mg/kg PO QD 6-9 wks, 300 mg/kg): significant reduction
- Fasting blood glucose (mean ± SD) [2, 7]: no significant differences
- Liver triglyceride (mean ± SD) ([2]; STAM NASH mice, 300 mg/kg PO QD, Day 21, 300 mg/kg): no significant differences
- Non-fasting blood glucose (mean ± SD) [2, 7]: no significant differences
- fibrosis area compared with the Vehicle in NASH group ([2]; STAM NASH mice, all treatment groups (gemcabene 30, 100, 300 mg/kg; telmisartan 10 mg/kg)): significantly reduced
- Plasma GGT (mean ± SD) ([2]; 30 mg/kg): 1 ± 0 U/L
- Plasma creatinine (mean ± SD) ([2]; 30 mg/kg): 0.1 ± 0.0 mg/dL
- Plasma ALP (mean ± SD) ([2]; 100 mg/kg): significant increases
- Plasma GGT (mean ± SD) ([2]; 100 mg/kg): 1 ± 0 U/L
- Plasma ALP (mean ± SD) ([2]; 300 mg/kg): significant increases
- Plasma GGT (mean ± SD) ([2]; 300 mg/kg): 1 ± 0 U/L
- Plasma creatinine (mean ± SD) ([2]; 300 mg/kg): significant increase
- Difference in fibrinogen change = Gem − Placebo (fibrinogen; MITT, Gemcabene 300 mg): −13.0
- Difference in fibrinogen change, Gem-placebo (fibrinogen; Gem 300 mg): 5.0
- Difference in fibrinogen change, Gem-placebo (fibrinogen; Gem 900 mg): −34.0
- effect on atorvastatin pharmacokinetics (Cmax, tmax, AUC(0-24), t½, atorvastatin and metabolites) [3]: no clinically important effect
